Experimental data as given in patent US10894793B2, “Bicyclic pyridine, pyrazine, and pyrimidine derivatives as PI3K beta inhibitors” (Janssen Pharmaceutica NV, priority 2016, dated 2021).
Where two headings read alike, the source gives them in different places.

Assays:
[1] = test system: Akt phosphorylated at Thr308 in PC-3 cells; assay: Cellular assay: phosphorylation of Akt (Thr308) in PC-3 cells, MSD ELISA; type: cell-based; details: 60 min compound incubation, read-out: IC50 pAkt_Thr308
Method: (§1) Cellular activity of PI3Kβ inhibitors was determined by quantifying the phosphorylation of Akt in PC-3 cells. Akt phosphorylated at Ser473 and Thr308 were measured using an enzyme-linked immunosorbent assay (ELISA; Meso Scale Discovery (MSD), Gaithersburg, Md.) and specific primary antibodies from MSD.
(§2) On day 1, PC3 cells (ATCC #[…]) were seeded into PerkinElmer MW96 plates at 25.000 cells per well, in 75 μl complete culture medium (DMEM high glucose, AQmedia™, D0819, Sigma-Aldrich) containing 10% heat inactivated FCS and incubated at 37° C., […] during 24 hours. On day 2, compound or DMSO (0.3%) was added and cells were further incubated for 60 min at 37° C., 5% CO2 in a total volume of 100 μl of medium.
(§3) The phosphoprotein assay was executed according to vendor instructions in the Phospho-Akt (Ser473) Assay Whole Cell Lysate Kit (MSD #K15100D-3) and the Phospho-Akt (Thr308) Assay Whole Cell Lysate Kit (MSD #K151DYD-3) using the lysis, blocking and wash buffer provided.
(§4) Briefly, at the end of the cell treatment period, media were removed by aspiration and adherent cells were lysed in 50 μl ice-cold lysis buffer. MSD plates are supplied pre-coated with capture antibodies for Phospho-Akt (Ser473 and Thr308). After blocking, lysates from tissue culture plates were added and plates were washed. Then, a solution containing the detection antibody (anti-total Akt conjugated with an electrochemiluminescent compound-MSD Sulfo-tag label) was added. The signals were detected using an MSD SECTOR Imager 6000 and are proportional to the phospho-Akt titres.
(§5) Data were processed. The percentage of inhibition was plotted against the log concentration of test compounds, and the sigmoidal log concentration-effect curve of best fit was calculated by nonlinear regression analysis. From these concentration-response curves, the IC50 values were calculated. Five concentrations were used for curve fitting.

[2] = test system: Akt phosphorylated at Ser473 in PC-3 cells; assay: Cellular assay: phosphorylation of Akt (Ser473) in PC-3 cells, MSD ELISA; type: cell-based; details: 60 min compound incubation, read-out: IC50 pAkt_S473
Method: as §1, §2, §3, §4, §5

[3] = target: T1, PIK3Cα_h (Homo sapiens, UniProt P42336); assay: Enzyme binding assay (KINOMEscan); details: DiscoveRx
T1 construct: purchased DiscoveRx Corporation
Method: (§6) Enzyme Binding Assays (KINOMEscan®)
(§7) Kinase enzyme binding affinities of compounds disclosed herein were determined using the KINOMEscan technology performed by DiscoveRx Corporation, San Diego, Calif., USA (www.kinomescan.com). Table A reports the obtained Kd values (nM), with the Kd being the inhibitor binding constant: […]

[4] = target: T2, PIK3Cδ_h (Homo sapiens, UniProt O00329); assay: Enzyme binding assay (KINOMEscan); details: DiscoveRx
T2 construct: purchased DiscoveRx Corporation
T2 sequence (O00329 1-1044): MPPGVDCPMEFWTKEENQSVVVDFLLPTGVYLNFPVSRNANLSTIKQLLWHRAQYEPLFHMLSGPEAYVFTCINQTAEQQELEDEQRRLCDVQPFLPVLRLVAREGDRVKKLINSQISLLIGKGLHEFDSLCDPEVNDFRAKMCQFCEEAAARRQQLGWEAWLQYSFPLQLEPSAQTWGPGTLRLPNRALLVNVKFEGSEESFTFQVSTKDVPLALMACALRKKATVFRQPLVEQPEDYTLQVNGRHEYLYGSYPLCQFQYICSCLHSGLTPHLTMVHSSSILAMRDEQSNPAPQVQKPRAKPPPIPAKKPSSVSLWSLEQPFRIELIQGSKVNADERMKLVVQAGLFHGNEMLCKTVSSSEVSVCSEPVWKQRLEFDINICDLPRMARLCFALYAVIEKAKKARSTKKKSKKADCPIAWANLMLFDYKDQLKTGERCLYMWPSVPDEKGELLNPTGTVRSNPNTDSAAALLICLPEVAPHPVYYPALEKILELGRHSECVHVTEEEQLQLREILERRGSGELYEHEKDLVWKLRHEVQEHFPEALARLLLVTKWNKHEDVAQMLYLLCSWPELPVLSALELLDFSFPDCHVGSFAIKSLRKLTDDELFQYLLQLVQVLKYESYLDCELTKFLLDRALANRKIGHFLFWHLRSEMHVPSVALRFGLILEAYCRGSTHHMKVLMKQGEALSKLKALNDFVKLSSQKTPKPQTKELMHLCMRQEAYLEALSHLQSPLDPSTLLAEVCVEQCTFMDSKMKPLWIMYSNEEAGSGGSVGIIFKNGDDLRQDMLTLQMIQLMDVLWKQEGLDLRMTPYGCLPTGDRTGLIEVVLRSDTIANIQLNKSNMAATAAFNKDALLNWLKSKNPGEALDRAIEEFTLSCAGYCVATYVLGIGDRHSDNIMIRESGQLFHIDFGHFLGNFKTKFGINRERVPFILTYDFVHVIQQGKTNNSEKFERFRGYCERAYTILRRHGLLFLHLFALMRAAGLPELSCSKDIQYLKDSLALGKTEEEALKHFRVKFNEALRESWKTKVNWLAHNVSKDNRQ
Method: as §6, §7

[5] = target: T3, PIK3Cβ_h (Homo sapiens, UniProt P42338); assay: Enzyme binding assay (KINOMEscan); details: DiscoveRx
T3 construct: purchased DiscoveRx Corporation
Method: as §6, §7

[6] = target: T4, PIK3Cγ_h (Homo sapiens, UniProt P48736); assay: Enzyme binding assay (KINOMEscan); details: DiscoveRx
T4 construct: purchased DiscoveRx Corporation
Method: as §6, §7

[7] = target: T5, MTOR_h (Homo sapiens, UniProt P42345); assay: Enzyme binding assay (KINOMEscan); details: DiscoveRx
T5 construct: purchased DiscoveRx Corporation
Method: as §6, §7

T1 sequence (P42336 whole entry): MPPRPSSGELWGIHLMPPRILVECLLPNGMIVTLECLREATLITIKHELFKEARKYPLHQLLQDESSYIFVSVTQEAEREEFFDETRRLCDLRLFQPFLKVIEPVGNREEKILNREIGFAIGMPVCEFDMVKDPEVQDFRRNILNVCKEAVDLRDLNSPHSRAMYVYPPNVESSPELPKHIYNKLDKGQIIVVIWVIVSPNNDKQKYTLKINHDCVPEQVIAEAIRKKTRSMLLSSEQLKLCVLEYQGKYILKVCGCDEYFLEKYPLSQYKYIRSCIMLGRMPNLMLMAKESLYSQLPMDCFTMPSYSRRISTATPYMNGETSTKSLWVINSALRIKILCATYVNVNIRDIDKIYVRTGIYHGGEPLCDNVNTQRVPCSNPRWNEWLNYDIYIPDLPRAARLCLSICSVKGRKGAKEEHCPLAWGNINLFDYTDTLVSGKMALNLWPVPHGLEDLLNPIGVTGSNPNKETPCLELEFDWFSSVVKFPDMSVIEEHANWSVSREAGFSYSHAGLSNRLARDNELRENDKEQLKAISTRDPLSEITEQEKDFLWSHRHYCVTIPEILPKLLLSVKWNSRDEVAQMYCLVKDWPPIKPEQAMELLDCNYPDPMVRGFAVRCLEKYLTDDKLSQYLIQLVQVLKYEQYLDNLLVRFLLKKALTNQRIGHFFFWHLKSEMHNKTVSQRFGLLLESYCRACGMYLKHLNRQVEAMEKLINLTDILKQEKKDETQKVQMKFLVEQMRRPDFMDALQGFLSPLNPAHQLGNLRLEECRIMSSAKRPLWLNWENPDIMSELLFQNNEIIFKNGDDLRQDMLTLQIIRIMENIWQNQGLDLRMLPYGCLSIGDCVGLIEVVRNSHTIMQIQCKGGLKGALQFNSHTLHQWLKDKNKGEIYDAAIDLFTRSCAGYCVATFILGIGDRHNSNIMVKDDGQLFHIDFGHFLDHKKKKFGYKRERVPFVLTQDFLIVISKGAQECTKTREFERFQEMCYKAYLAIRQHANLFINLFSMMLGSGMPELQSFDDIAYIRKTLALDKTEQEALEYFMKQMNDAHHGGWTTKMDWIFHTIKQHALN
T3 sequence (P42338 whole entry): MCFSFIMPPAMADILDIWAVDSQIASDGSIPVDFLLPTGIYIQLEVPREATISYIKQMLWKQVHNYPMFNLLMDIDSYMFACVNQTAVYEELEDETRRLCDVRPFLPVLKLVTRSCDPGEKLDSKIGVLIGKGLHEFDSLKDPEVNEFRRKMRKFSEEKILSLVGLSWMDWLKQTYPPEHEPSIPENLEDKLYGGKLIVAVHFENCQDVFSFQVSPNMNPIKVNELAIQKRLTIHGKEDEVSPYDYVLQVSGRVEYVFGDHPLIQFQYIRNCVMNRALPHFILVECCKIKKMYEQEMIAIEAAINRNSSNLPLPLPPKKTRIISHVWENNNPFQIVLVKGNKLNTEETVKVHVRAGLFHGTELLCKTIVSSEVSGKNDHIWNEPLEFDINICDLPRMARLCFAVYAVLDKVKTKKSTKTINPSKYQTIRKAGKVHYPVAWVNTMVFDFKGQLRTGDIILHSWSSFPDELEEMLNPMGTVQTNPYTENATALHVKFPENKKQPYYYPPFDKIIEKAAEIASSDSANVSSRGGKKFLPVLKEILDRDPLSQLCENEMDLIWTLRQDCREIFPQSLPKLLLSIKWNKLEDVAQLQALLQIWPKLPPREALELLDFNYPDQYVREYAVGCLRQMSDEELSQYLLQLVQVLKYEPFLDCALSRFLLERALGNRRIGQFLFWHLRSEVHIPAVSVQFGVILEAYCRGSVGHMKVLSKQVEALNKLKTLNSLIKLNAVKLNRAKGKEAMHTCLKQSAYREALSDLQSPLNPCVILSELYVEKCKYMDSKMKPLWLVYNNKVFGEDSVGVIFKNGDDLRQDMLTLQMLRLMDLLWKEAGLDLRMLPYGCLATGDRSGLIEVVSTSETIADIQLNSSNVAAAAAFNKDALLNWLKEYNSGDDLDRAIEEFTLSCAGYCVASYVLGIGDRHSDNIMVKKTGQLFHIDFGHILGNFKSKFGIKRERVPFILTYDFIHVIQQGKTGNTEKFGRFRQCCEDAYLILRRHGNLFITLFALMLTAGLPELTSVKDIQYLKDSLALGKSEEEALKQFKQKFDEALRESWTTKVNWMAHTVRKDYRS
T4 sequence (P48736 whole entry): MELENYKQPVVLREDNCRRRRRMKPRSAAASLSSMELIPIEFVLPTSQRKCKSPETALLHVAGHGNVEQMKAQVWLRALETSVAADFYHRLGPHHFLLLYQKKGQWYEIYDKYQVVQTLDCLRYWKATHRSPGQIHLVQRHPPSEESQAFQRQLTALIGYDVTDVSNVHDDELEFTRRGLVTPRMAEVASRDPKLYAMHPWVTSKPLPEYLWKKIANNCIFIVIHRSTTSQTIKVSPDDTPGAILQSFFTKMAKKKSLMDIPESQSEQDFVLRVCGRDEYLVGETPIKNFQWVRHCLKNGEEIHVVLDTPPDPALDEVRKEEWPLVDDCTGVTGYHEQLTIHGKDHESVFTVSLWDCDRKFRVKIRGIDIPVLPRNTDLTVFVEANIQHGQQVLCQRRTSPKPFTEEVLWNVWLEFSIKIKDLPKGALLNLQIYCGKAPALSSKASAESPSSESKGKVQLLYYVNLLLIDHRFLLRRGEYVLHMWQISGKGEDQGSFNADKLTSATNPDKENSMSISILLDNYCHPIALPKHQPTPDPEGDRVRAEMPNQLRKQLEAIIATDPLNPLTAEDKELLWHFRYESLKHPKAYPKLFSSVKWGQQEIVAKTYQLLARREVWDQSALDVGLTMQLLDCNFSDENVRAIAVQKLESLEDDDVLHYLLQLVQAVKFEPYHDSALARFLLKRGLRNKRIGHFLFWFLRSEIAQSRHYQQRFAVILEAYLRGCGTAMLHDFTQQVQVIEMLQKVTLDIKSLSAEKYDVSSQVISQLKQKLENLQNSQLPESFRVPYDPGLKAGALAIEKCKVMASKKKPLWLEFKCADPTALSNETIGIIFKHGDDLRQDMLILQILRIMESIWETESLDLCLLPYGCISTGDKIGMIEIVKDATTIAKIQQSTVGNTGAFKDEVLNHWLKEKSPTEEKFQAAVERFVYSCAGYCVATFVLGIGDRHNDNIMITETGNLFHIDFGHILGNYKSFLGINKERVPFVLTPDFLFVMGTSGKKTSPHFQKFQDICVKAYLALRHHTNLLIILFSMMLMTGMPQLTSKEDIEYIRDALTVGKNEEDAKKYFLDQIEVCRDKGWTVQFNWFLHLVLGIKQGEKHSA

| Structure (SMILES) | IC50 [1] | IC50 [2] | Kd [3] | Kd [4] | Kd [5] | Kd [6] | Kd [7] | IC50 ([1]; Homo sapiens, PC-3, 1 h) | IC50 ([2]; Homo sapiens, PC-3, 1 h) |
| --- | --- | --- | --- | --- | --- | --- | --- | --- | --- |
| Cc1nc2c(C(=O)O)nc(C3=CCOCC3)cn2c1Cc1cccc(C(F)(F)F)c1C [Compound 3] | – | – | 11500 nM | 468 nM | 1.4 nM | > 30200 nM | > 30200 nM | > 513 nM | – |
| Cc1nc2c(CO)nc(C3=CCOCC3)cn2c1Cc1cccc(C(F)(F)F)c1C [Compound 4] | – | – | 12000 nM | 3020 nM | 7.6 nM | 14800 nM | > 30200 nM | 479 nM | > 513 nM |
| Cc1c(Cc2c(CN3C[C@@H](C)N[C@@H](C)C3)nc3cnc(N4CCOCC4)cn23)cccc1C(F)(F)F [Compound 11] | – | – | > 30200 nM | 8130 nM | 120 nM | > 30200 nM | > 30200 nM | > 513 nM | > 513 nM |
| Cc1c(Cc2c(CC(=O)N3C[C@@H](C)N[C@@H](C)C3)nc3cnc(N4CCOCC4)cn23)cccc1C(F)(F)F [Compound 14] | – | – | > 30200 nM | 15100 nM | 155 nM | > 30200 nM | > 30200 nM | > 513 nM | > 513 nM |
| Cc1c(Cc2c(CC(=O)N3CC(CO)C3)nc3cnc(N4CCOCC4)cn23)cccc1C(F)(F)F [Compound 15] | – | – | > 30200 nM | 11200 nM | 141 nM | > 30200 nM | > 30200 nM | – | – |
| CCOC(=O)Cc1nc2ccc(N3CCOCC3)cn2c1Cc1cccc(C(F)(F)F)c1C [Compound 30] | – | – | > 10000 nM | 5750 nM | 631 nM | > 30200 nM | > 10000 nM | – | – |
| Cc1c(Cc2c(CN3CCCC4(CNC4)C3)nc3ccc(N4CCOCC4)cn23)cccc1C(F)(F)F [Compound 31] | – | – | > 30200 nM | 1350 nM | 20 nM | > 30200 nM | > 30200 nM | > 513 nM | 479 nM |
| Cc1c(Cc2c(CN3CC4(CCN4)C3)nc3ccc(N4CCOCC4)cn23)cccc1C(F)(F)F [Compound 32] | – | – | 7240 nM | 324 nM | 2.2 nM | 8510 nM | 27500 nM | ~178 nM | 191 nM |
| Cc1c(Cc2c(CN3CC4(C3)CS(=O)(=O)C4)nc3ccc(N4CCOCC4)cn23)cccc1C(F)(F)F [Compound 33] | – | – | 589 nM | 316 nM | 3 nM | > 30200 nM | > 30200 nM | 15 nM | 16 nM |
| CC(=O)N(CCO)Cc1nc2ccc(N3CCOCC3)cn2c1Cc1cccc(C(F)(F)F)c1C [Compound 37] | – | – | 10200 nM | 1440 nM | 20 nM | > 30200 nM | 24000 nM | ~282 nM | 282 nM |

More lines, now with the values ahead:

| IC50 [1] | IC50 [2] | Kd [3] | Kd [4] | Kd [5] | Kd [6] | Kd [7] | IC50 ([1]; Homo sapiens, PC-3, 1 h) | IC50 ([2]; Homo sapiens, PC-3, 1 h) | Structure (SMILES) |
| --- | --- | --- | --- | --- | --- | --- | --- | --- | --- |
| 170 nM | 347 nM | > 30200 nM | 759 nM | 6.5 nM | > 30200 nM | > 30200 nM | – | – | Cc1c(Cc2c(CN3CCC4(CCS(=O)(=O)C4)C3)nc3ncc(N4CCOCC4)cn23)cccc1C(F)(F)F (single isomer, unassigned) [Compound 24a] |
| – | – | > 30200 nM | 5490 nM | 68 nM | > 30200 nM | > 30200 nM | > 513 nM | > 513 nM | Cc1c(Cc2c(CNCCO)nc3cnc(N4CCOCC4)cn23)cccc1C(F)(F)F [Compound 12] |
| – | – | 3500 nM | 442 nM | 1.4 nM | 15300 nM | 17900 nM | 43 nM | 72 nM | Cc1c(Cc2c(CO)nc3ncc(N4CCOCC4)cn23)cccc1C(F)(F)F [Compound 18] |
| – | – | > 30200 nM | 7240 nM | 76 nM | > 30200 nM | > 30200 nM | > 513 nM | > 513 nM | Cc1c(Cc2c(CN3CCCC4(CNC4)C3)nc3ncc(N4CCOCC4)cn23)cccc1C(F)(F)F [Compound 20] |
| – | – | 2570 nM | 1410 nM | 11 nM | > 30200 nM | > 30200 nM | ~174 nM | 288 nM | Cc1c(Cc2c(CN3CCC4(CCS(=O)(=O)C4)C3)nc3ncc(N4CCOCC4)cn23)cccc1C(F)(F)F (stereo not drawn) [Compound 24] |
| – | – | 5890 nM | 759 nM | 8.9 nM | 7240 nM | 5620 nM | 120 nM | 195 nM | Cc1c(F)cccc1Cc1c(CO)nc2ncc(N3CCOCC3)cn12 [Compound 25] |
| – | – | 4170 nM | 697 nM | 6.8 nM | > 30200 nM | > 30200 nM | 71 nM | 479 nM | Cc1c(Cc2c(CN3CCC4(CCCS4(=O)=O)C3)nc3ncc(N4CCOCC4)cn23)cccc1C(F)(F)F (stereo not drawn) [Compound 26] |
| – | – | 9550 nM | 2570 nM | 363 nM | > 30200 nM | > 30200 nM | 417 nM | > 513 nM | Cc1nc2ccc(N3CCOCC3)cn2c1Cc1cccc(C(F)(F)F)c1C [Compound 27] |
| – | – | 6920 nM | 2140 nM | 126 nM | 14500 nM | > 30200 nM | 50 nM | 155 nM | Cc1c(Cc2c(CF)nc3ccc(N4CCOCC4)cn23)cccc1C(F)(F)F [Compound 29] |
| – | – | 16900 nM | 741 nM | 9 nM | > 30200 nM | 23200 nM | 70 nM | 110 nM | Cc1c(Cc2c(CNCCO)nc3ccc(N4CCOCC4)cn23)cccc1C(F)(F)F [Compound 34] |
| – | – | 22400 nM | 575 nM | 5.8 nM | > 30200 nM | 21900 nM | 89 nM | 74 nM | Cc1c(Cc2c(CNCCCO)nc3ccc(N4CCOCC4)cn23)cccc1C(F)(F)F [Compound 35] |
| – | – | > 30200 nM | 2140 nM | 22 nM | > 30200 nM | > 30200 nM | ~132 nM | ~224 nM | Cc1c(Cc2c(CN(C)CCO)nc3ccc(N4CCOCC4)cn23)cccc1C(F)(F)F [Compound 36] |
| – | – | 2950 nM | 2040 nM | 71 nM | 4370 nM | 2290 nM | > 513 nM | > 513 nM | Cc1c(Cc2c(CO)nc3c(-c4ccn[nH]4)cc(N4CCOCC4)cn23)cccc1C(F)(F)F [Compound 38] |
